In BindingDB's records for doi:10.1128/AAC.01293-09 (Glaxosmithkline, 2010) one finds IC50 data, which are given here for 1 molecule.

Experiment [1] can be described thus: Inhibition of HIV1 HXB2 gp120-mediated viral infusion into HEK293 cells after 24 hrs by luciferase reporter gene assay in presence of 45 mg/ml human serum albumin. A general note: A reporter such as luciferase makes a cellular process visible.
A short description of experiment [2]: Inhibition of CXCR4-mediated chemotaxis in SDF1-stimulated human U937 cells treated 15 mins before SDF1 challenge measured after 2 hrs by luminescence assay.
Experiment [3] can be described thus: Inhibition of HIV1 HXB2 gp120-mediated viral infusion into HEK293 cells after 24 hrs by luciferase reporter gene assay.

One may read the IC50 as the concentration that inhibits the measured activity by half.

Structures are written as SMILES.

Take `CN1CCN(c2cccc3nc(CN(C)[C@H]4CCCc5cccnc54)c(CO)n23)CC1` [([5-(4-Methyl-1-piperazinyl)-2-({methyl[(8S)-5,6,7,8-tetrahydro-8-quinolinyl]amino}methyl)imidazo[1,2-a]pyridin-3-yl]methanol)]: the IC50 stood at 1.71 nM in experiment [1], 0.34 nM in experiment [2] and 0.56 nM in experiment [3].
